These results are taken from a melting point compilation (Tetko et al.; mined from patent text by program, amines drawn as free bases though some values may be those of a salt).

Where only a bound is given, the exact number is not on record here.

Turning to `O=C(O)c1ccccc1C(=O)c1ccc(Cl)cc1Cl`, the melting point lay within 178 to 181 °C.

In turn, `CC(=O)NCC1OC(=O)N2c3ccc(-c4ccccc4)cc3CC12` (configuration not stated) gave a melting point of 181 to 183 °C. In turn, `Nc1[nH]c(=S)nc2nc[nH]c12` registered a melting point of 196 to 198 °C. In the case of `O=C1c2ccccc2-c2[nH]c(=O)c(=O)[nH]c21`, the melting point was 243 to 253 °C. The molecule `CCC1(Cl)NN=C2C=Nc3cc(Cl)c(Cl)cc3N21` (configuration not stated) had a melting point of 198 to 201 °C. As for `CCOC(=O)c1ccc2[nH]c([Si](C)(C)C)c(CCCO[Si](C)(C)C(C)(C)C)c2c1`, the figure is 115 to 116 °C; as for `O=[N+]([O-])c1cc(Cl)c(Oc2cc(Cl)c(Br)cc2Cl)cc1Oc1ccccc1`, 85 °C. In turn, `CNC(=O)N(O)C(C)c1ccc(Cl)cc1` (configuration not stated) gave a melting point of 117 to 120 °C. As for `O=c1c2ccc(O)c(O)c2oc2cccc(O)c12`, the figure is 300 to 301 °C; as for `COc1ccc(Cn2cc3nc(Nc4ccc(C(F)(F)F)cc4Cl)nc(OCc4ccccc4)c3n2)cc1`, 189 to 192 °C. Regarding `COC(=O)C(=NO)c1cc(Cl)nc(NC=O)n1`, the melting point was in the range of 110 to 112 °C.

Consider `O=C(O)c1ccc(C2=NCCO2)cc1`, for which the melting point is > 300 °C. For `CCc1ccc(-c2c(Cl)c(CN3C(=O)CCC3=O)nc3sc4c(c23)CCN(C(=O)OCc2ccccc2)C4)cc1`, the melting point fell in the range of 170 to 171 °C. As for `O=c1c2ccc(Cl)cc2[nH]n1Cc1ccccc1`, the figure is 209 to 214 °C; as for `COCCNC(=O)c1ccc(C(=O)N2CCN(c3ncccc3NC(C)C)CC2)nc1`, 122 to 124 °C. As to `CNc1nc2ccc(OC(F)(F)F)cc2s1`, the melting point amounted to 162 °C. For the molecule `Oc1cnn(-c2ccc(Cl)cc2)c1`, the melting point was in the range of 127 to 128 °C. In the case of `COC(=O)c1ccc(C#CCc2cccc3c2OCCC3(C)C)cc1O`, the melting point was 92 to 93 °C. Molecule `O=c1c2c(n(-c3ccccc3)c3ncccc13)OCC2` gave a melting point of 245 to 247 °C.

Regarding `CCN(C(=O)OC(C)(C)C)c1cn(-c2cccnc2)nc1Cl`, the melting point was 55 to 58 °C.

In turn, `N[C@@H](Cc1cccc(Oc2ccc(Oc3ccc(O)cc3)cc2)c1)C(=O)O` yielded a melting point of 67 to 71 °C.

For `Cc1cc2ncnn2nc1OCCC(C)(C)CCS(N)(=O)=O`, the melting point was in the range of 143 to 144 °C.

On to `CC(=O)N1Cc2cccc3c2c(cn3C)C1`, for which the melting point is 125 to 126 °C. Turning to `C#Cc1ccc(N)nc1`, the melting point was found to be 143 °C. In the case of `O=C(CC(=O)C1CC1)c1ccccn1`, the melting point lay within 77 to 78 °C. As for `CCC1SC(=O)N(Cc2ccc(C(=O)O)cc2)N=C1c1ccc(O)c(O)c1` (configuration not stated), the figure is 106 °C; as for `COc1cc(CCCOS(C)(=O)=O)ccc1OCc1coc(/C=C/c2ccccc2)n1`, 130 to 131 °C; as for `Nc1c(F)c(N2CC(n3cncn3)C2)c(F)c2c1c(=O)c(C(=O)O)cn2C1CC1`, 293 to 295 °C. As to `O=C(C(Cl)Cl)N1CCOC1C(Cl)Cl` (configuration not stated), the melting point came to 80 °C.

For the molecule `CCCNON=C(C)C1=CCCN(C)C1`, the melting point lay within 78 to 79 °C. As for `O=c1nc2ccccc2c2cc(CO)[nH]n12`, the figure is 225 to 230 °C.

The molecule `Cc1ccc(Oc2ccc(C(=O)N=C(N)N)cc2S(C)(=O)=O)cn1` came in with a melting point of 197 to 199 °C. As for `COc1ccc2c(c1)c(Cc1cc(=O)n(C3CCCC3)[nH]1)c(C)n2C(=O)c1ccc(Cl)cc1`, the melting point lay in the range of 153 to 155 °C. Regarding `CC(=O)CC(=O)c1ccc(C)nc1`, the melting point fell in the range of 57 to 58 °C.

The molecule `Cc1cc([C@@H]2CCC(=O)N2)on1` showed a melting point of 90 to 91 °C. In turn, `Cc1ccccc1C(CCC(=O)NS(=O)(=O)c1ccccc1)Oc1cc(OCc2ccsc2)ccc1C#N` (racemic) yielded a melting point of 68 to 70 °C. As for `Cc1cccc(C(=O)c2[nH]c3cc(Cl)ccc3c2NC(N)=O)c1`, the melting point was > 280 °C.

The molecule `CCCCc1c(C=O)ccc2c(OC)cccc12` registered a melting point of 61.5 to 62.5 °C. As for `COc1ccc(-c2cc(=O)n(Cc3ccc(Cl)cc3Cl)nc2-c2ccc(OC)c(OC)c2)cc1`, the figure is 119 to 120 °C. Molecule `CC(C)(C)c1cc(CS[C@@H]2CCCC[C@H]2SCc2cc(C(C)(C)C)cc(C(C)(C)C)c2O)c(O)c(C(C)(C)C)c1` (relative stereo) had a melting point of 104 to 106 °C.

In turn, `COCCN(CCOC)CCc1ccc(Nc2ncc3c(n2)-c2ccccc2C(c2cccc(Br)c2)C3)cc1` (configuration not stated) returned a melting point of 58 to 60 °C. In turn, `CCOC1CC2(C)C(CCC3C4CCC(C(=O)OC)C4(C)CC(NC4CCCCC4)C32)CC1O` (configuration not stated) displayed a melting point of 110 to 112 °C.

Molecule `O=C(OCOCOC(=O)c1c(F)cccc1F)c1c(F)cccc1F` gave a melting point of 52 to 53 °C. Regarding `CN(CCN1CCCCC1)S(=O)(=O)c1cc([N+](=O)[O-])ccc1Sc1cc(Cl)cc(Cl)c1`, the melting point fell in the range of 113 to 114 °C. In turn, `CCOc1ccc(CC2(C)CNCCN2Cc2ccccc2)cc1OCC` (configuration not stated) returned a melting point of 94 to 96 °C.

`CN1CCC(c2c[nH]c3ccc(Sc4ccccc4)cc23)CC1` showed a melting point of 147 to 150 °C.

On to `CC[C@@H]1NC(=O)C[C@@]1(O)C1CC1`, for which the melting point was 87 to 102 °C. As for `COc1ccc(C(=O)Nc2cccnc2Cl)cc1`, the melting point turned out to be 125 °C. For `Nc1ccc(C(O)(Cc2ccccc2)c2ccccc2)cc1` (configuration not stated), the melting point was 105 to 107 °C. As for `COc1cc(C=O)ccc1OCC#CI`, the figure is 121 to 127 °C; as for `O=C1N=NC(=O)c2c1[nH]c1cc(Cl)ccc21`, > 250 °C; as for `CC(=O)OC1CCC2(C)C(=CCC3C2CCC2(C)C(c4cccnc4)=CCC32)C1` (configuration not stated), 144 to 145 °C.

Molecule `Cc1ccnc(N2CCN(CCc3c(C)n4c5c(cc(O)cc35)CCC4)CC2)c1` registered a melting point of 110 °C.

On to `CCc1c(-c2ccc(OCc3ccccc3)cc2)c2c(COCCCCCN3CCCCC3)cc3c(OCc4ccccc4)ccc1n32`, for which the melting point fell in the range of 106 to 107 °C.

The molecule `O=C1c2ccccc2C(=O)N1CC(=O)N1c2ccccc2N(Cc2ccc(NCc3ccccc3)cc2)C(=O)[C@H]2CCC[C@H]21` (relative stereo) had a melting point of 178 to 182 °C. `Cc1cc(-c2cc(C(F)(F)F)nc(-c3ccnc(-c4cccc(S(N)(=O)=O)c4)c3)n2)ccc1Cl` gave a melting point of 234 °C.

`O=S=c1cc(-c2ccc(Cl)cc2)ss1` registered a melting point of 123 to 125 °C. The molecule `O=C(COc1ccc2c(c1)OCO2)c1ccccc1` displayed a melting point of 123 to 126 °C.

For `CCCn1c(=O)n(-c2ccc3c(c2)OCO3)c2ncc(NC(=O)OCC)cc21`, the melting point was in the range of 146 to 147 °C. As to `Cc1ccc(-c2c(C#N)n(C)c(=O)c3ncccc23)cc1`, the melting point was in the range of 268 to 270 °C.

The molecule `Cc1ccc(-c2ccc3c(c2)C=C(C(=O)Nc2ccc(C(=O)C4CCCCN4C(=O)OC(C)(C)C)cc2)CCO3)cc1` (configuration not stated) yielded a melting point of 223 to 224 °C. Molecule `CC(=O)COC(=O)C=CC(=O)OCC(C)=O` displayed a melting point of 121 to 123 °C. As for `NC[C@@H]1C[C@@H](CC(=O)O)C(=O)N1CCCc1ccccc1`, the figure is 188 to 192 °C; as for `CC1=CC(=O)C=CC1(C)C(Cl)(Cl)Cl` (configuration not stated), 57 °C; as for `N#CN1CCC(c2n[nH]c3cc(Cl)ccc23)CC1`, 180 to 188 °C. `O=Cc1ccc(-c2ccc3nc[nH]c(=O)c3c2)o1` registered a melting point of 267 °C. In turn, `CCCN1CCC(c2ccccc2)=C(C(=O)NCc2ccccc2)C1` gave a melting point of 96 to 98 °C. Molecule `O=C(CCCCCCC(=O)N1CCN(CC(=O)Nc2nc3ccccc3s2)CC1)NO` displayed a melting point of 166 to 170 °C. `O=C(N[C@H](Cc1ccc(C(F)(F)F)cc1)[C@@H](O)c1ccc(F)cc1)c1cccc(Cl)c1Cl` (racemic) returned a melting point of 187 to 188 °C. As for `Cc1ccc(N=c2scc(-c3ccc(Cl)c(S(=O)(=O)N(C)C)c3)n2C)c(C)c1`, the figure is 152 to 154 °C. As for `O=C(CN1C(=O)C2(COc3cc4c(cc32)CCO4)c2c(Cl)cccc21)Nc1ccccc1F` (configuration not stated), the figure is 243 to 245 °C; as for `COc1ccc(N2CCOCC2)c2sc(-c3nc4ccccc4[nH]3)nc12`, 284 to 286 °C. As for `CCCS(=O)(=O)N=C(NC)NCCSCc1[nH]cnc1C`, the melting point fell in the range of 73 to 74 °C. In turn, `CC1CCCN(C(=O)c2nc(-c3ccccc3)nc3ccccc23)C1` (configuration not stated) came in with a melting point of 116 °C. In turn, `CN1C(=O)CN(c2cccc(Cl)c2)NC1=O` displayed a melting point of 178 to 180 °C. Turning to `CCOC(=O)CN1C(=O)[C@@H](N)CCc2ccccc21`, the melting point lay in the range of 106 to 108 °C. As for `Nc1ccc(NNC(=O)c2ccccc2)cc1`, the figure is 134 to 136 °C. `Sc1nnc(-c2cnccn2)s1`: the melting point fell in the range of 224 to 228 °C.

`COc1ccc(OC(CCCN(C)C2C3CCC2CNC3)c2ccc(C#N)cc2)cc1OC` (configuration not stated): the melting point was in the range of 47 to 53 °C. In turn, `COc1ccc(C(=O)c2ccccn2)cc1OC` had a melting point of 91.5 to 93 °C. As for `Cc1cc(C(F)(F)F)cc(N(C(N)=O)c2c(Cl)cccc2Cl)n1`, the melting point was determined as 165 °C. For `N#Cc1ccc(-c2csc(NCCO)n2)cc1`, the melting point lay in the range of 80 to 82 °C. In turn, `Nc1nc(SCc2ccc3ccccc3c2)nc(O)c1CCO` showed a melting point of 192 to 193 °C. Molecule `CC(C)Nc1cccnc1N1CCN(C(=O)c2ccc(C(=O)NC(CO)CO)cn2)CC1` came in with a melting point of 90 to 93 °C. `NC1=Nc2ccccc2CS1`: the melting point is 132 to 135 °C. Molecule `CNc1nc(-c2ccccc2)c(-c2nc3ccccc3c(=O)n2-c2cccc(C)c2)s1` showed a melting point of 186 to 187 °C. Turning to `NC1CCc2ccccc2N(CC(=O)O)C1=O` (configuration not stated), the melting point is 147 to 150 °C. For the molecule `COC(=O)c1ccc(Oc2ccccc2C=O)c([N+](=O)[O-])c1`, the melting point is 109 to 110 °C. Molecule `Cc1nc(NC(=O)N(C)C)nc(C)c1Cl` came in with a melting point of 127 to 129 °C. The molecule `O=c1oc(-c2ccccc2)cc(O)c1C(Sc1ccccc1)c1ccc2ccccc2c1` (configuration not stated) gave a melting point of 98 to 101 °C. As for `CCOC(=O)C1=C(N2CC2C(N)=O)CCCC1` (configuration not stated), the figure is 101 to 104 °C; as for `CC(C)Oc1ccc(-c2cncc(OC3SCC(O)C(O)C3O)c2)cc1` (configuration not stated), 158 °C.

As a reminder, the melting point is the temperature, or range, at which the solid turns liquid.
